Literature values as cited in patent publication US20180014537A1, “NOVEL COMPOSITIONS AND METHODS FOR CONTROLLING SOIL BORNE PATHOGENS OF AGRICULTURAL CROPS” (ADJUVANTS UNLIMITED LLC, priority 2015, published 2018).

What was measured:
[1] = soil drench
[2] = system: Meloidogyne incognita; conditions: 3.2 uL per liter as a soil drench
[3] = system: tomato seedlings; conditions: at 24 hours, equivalent concentrations
[4] = in vivo

| Structure (SMILES) | concentration above which significant phytotoxicity occurred [1] | control of Meloidogyne incognita [2] | mortality of seedling [3] | less phytotoxic than the parent pelargonic acid [4] |
| --- | --- | --- | --- | --- |
| CCCCCCCCC(=O)OC [PAME, pelargonic acid methyl ester] | exceeded 4.8 uL per liter | good control | 100% | 40 fold |
| CCCCCC[C@@H](O)C/C=C\CCCCCCCC(=O)OC [ricinoleic acid methyl ester] |  |  | 0% |  |
